Measurements as given in ChEMBL document CHEMBL5257123, “Synthesis of 6-alkoxy and 6-hydroxy-alkyl amine derivatives of braylin as vasorelaxing agents” (Bioorg Med Chem Lett, 2023).
Values belong to the compound of their own block, whether it stands above or below them. The source made the active and inactive calls. No cut-off for these calls is given here.

What was measured:
Rattus norvegicus [1] = species: Rattus norvegicus; experiment: Vasorelaxant activity in U46619-induced preconstricted rat endothelium-intact main mesenteric artery assessed as relaxation response at 30 uM relative to control; format: functional
Rattus norvegicus [2] = species: Rattus norvegicus; experiment: Vasorelaxant activity in U46619-induced preconstricted rat endothelium-intact main mesenteric artery assessed as relaxation response; format: functional
BV-2 [3] = experiment: Anti-neuroinflammatory activity in mouse BV2 cells assessed as reduction in LPS-induced TNFalpha production at 10 uM preincubated for 30 mins followed by LPS stimulation measured after 24 hrs by ELISA; format: functional, cell-based; conditions: time 24.5 hrs
BV-2 [4] = experiment: Anti-neuroinflammatory activity in mouse BV2 cells assessed as reduction in LPS-induced IL-6 production at 10 uM preincubated for 30 mins followed by LPS stimulation measured after 24 hrs by ELISA; format: functional, cell-based; conditions: time 24.5 hrs
[5] = Cytotoxicity against VSMC (unknown origin) cells assessed as cell survival at 1 uM measured after 12 hrs by MTT assay; format: toxicity, cell-based; conditions: read-out: Activity
[6] = Cytotoxicity against VSMC (unknown origin) cells assessed as cell survival at 10 uM measured after 12 hrs by MTT assay; format: toxicity, cell-based; conditions: read-out: Activity
Rattus norvegicus [7] = species: Rattus norvegicus; experiment: Vasorelaxant activity in U46619-induced preconstricted rat endothelium-intact main mesenteric artery assessed as relaxation response at 10 uM (reference value: 9.08 +/- 1.25 mN); format: functional; set-up: scale not given: the % may be the effect or the level left
Rattus norvegicus [8] = species: Rattus norvegicus; experiment: Vasorelaxant activity in rat endothelium-intact main mesenteric artery assessed as relaxation response at 10 uM; format: functional
Rattus norvegicus [9] = species: Rattus norvegicus; experiment: Vasorelaxant activity in rat endothelium-denuded main mesenteric artery assessed as relaxation response at 10 uM; format: functional
Rattus norvegicus [10] = species: Rattus norvegicus; experiment: Vasorelaxant activity in U46619 induced preconstricted rat endothelium-intact thoracic aortic rings assessed as vasorelaxation response; format: functional; conditions: Thoracic aorta
Rattus norvegicus [11] = species: Rattus norvegicus; experiment: Vasorelaxant activity in U46619-induced contraction in rat endothelium-denuded main mesenteric arterial ring assessed as relaxation response; format: functional; conditions: Mesenteric artery
Rattus norvegicus [12] = species: Rattus norvegicus; experiment: Vasorelaxant activity in U46619-induced contraction in rat endothelium-denuded main mesenteric arterial ring assessed as relaxation response relative to control; format: functional; conditions: Mesenteric artery
Rattus norvegicus [13] = species: Rattus norvegicus; experiment: Vasorelaxant activity in U46619-induced contraction rat endothelium-intact main mesenteric arterial rings assessed as relaxation response relative to control; format: functional; conditions: Mesenteric artery
Rattus norvegicus [14] = species: Rattus norvegicus; experiment: Vasorelaxant activity in U46619-induced contraction rat endothelium-intact main mesenteric arterial rings assessed as relaxation response; format: functional; conditions: Mesenteric artery
Rattus norvegicus [15] = species: Rattus norvegicus; experiment: Vasorelaxant activity in MKHS-induced preconstricted rat main mesenteric arterial rings assessed as relaxation response; format: functional; conditions: Mesenteric artery

Structure (SMILES): CCN1CCN(CC(O)COc2cc3ccc(=O)oc3c3c2OC(C)(C)C=C3)CC1 (stereo not given)
Emax at 30 µM (Rattus norvegicus [1]): < 50%

Structure (SMILES): CC1(C)C=Cc2c(c(OCC(O)CNCc3ccccn3)cc3ccc(=O)oc23)O1 (stereo not given)
Emax at 30 µM (Rattus norvegicus [1]): < 50%

Structure (SMILES): CCCCN(C)CC(O)COc1cc2ccc(=O)oc2c2c1OC(C)(C)C=C2 (stereo not given)
Emax at 30 µM (Rattus norvegicus [1]): < 50%

Structure (SMILES): CCCCOc1cc2ccc(=O)oc2c2c1OC(C)(C)C=C2
Emax at 30 µM (Rattus norvegicus [1]): < 50%

Structure (SMILES): CC1(C)C=Cc2c(c(OCC(O)CN3CCOCC3)cc3ccc(=O)oc23)O1 (stereo not given)
Emax at 30 µM (Rattus norvegicus [1]): < 50%

EC50 (Rattus norvegicus [2]; read-out: EC50): 2.12 µM
EC50 (Rattus norvegicus [2]; read-out: pEC50 (converted)): 2.14 µM
Structure (SMILES): CC1(C)C=Cc2c(ccc3ccc(=O)oc23)O1 [SESALIN]
Emax at 30 µM (Rattus norvegicus [1]): 60.8%
Activity (BV-2 [3]): Active
Activity (BV-2 [4]): Active

Structure (SMILES): CC1(C)C=Cc2c(c(OCC(O)CN3CCCCC3)cc3ccc(=O)oc23)O1 (stereo not given)
Emax at 30 µM (Rattus norvegicus [1]): < 50%

Structure (SMILES): COc1cc2ccc(=O)oc2cc1O [SCOPOLETIN]
Activity (BV-2 [3]): Active
Activity (BV-2 [4]): Active
viability at 12 h, 1 µM [5]: 91.2%
viability at 12 h, 10 µM [6]: 102%

Structure (SMILES): CN(C)CC(O)COc1cc2ccc(=O)oc2c2c1OC(C)(C)C=C2 (stereo not given)
Emax at 30 µM (Rattus norvegicus [1]): < 50%

Structure (SMILES): CC(=O)OCC[N+](C)(C)C [ACETYLCHOLINE]
Activity (Rattus norvegicus [7]): 88.4%
Activity (Rattus norvegicus [8]): Active
Activity (Rattus norvegicus [9]): inactive

Structure (SMILES): CC1(C)C=Cc2c(c(OCC(O)CN3CCNCC3)cc3ccc(=O)oc23)O1 (stereo not given)
Emax at 30 µM (Rattus norvegicus [1]): < 50%

Structure (SMILES): CC(C)N(CC(O)COc1cc2ccc(=O)oc2c2c1OC(C)(C)C=C2)C(C)C (stereo not given)
Emax at 30 µM (Rattus norvegicus [1]): < 50%

Structure (SMILES): CN1CCN(CC(O)COc2cc3ccc(=O)oc3c3c2OC(C)(C)C=C3)CC1 (stereo not given)
Emax at 30 µM (Rattus norvegicus [1]): < 50%

Structure (SMILES): CC1(C)C=Cc2c(c(O)cc3ccc(=O)oc23)O1
Activity (BV-2 [3]): Active
Activity (BV-2 [4]): Active

Structure (SMILES): CCCCCN(C)CC(O)COc1cc2ccc(=O)oc2c2c1OC(C)(C)C=C2 (stereo not given)
Emax at 30 µM (Rattus norvegicus [1]): < 50%

Structure (SMILES): CC1(C)C=Cc2c(c(OCC(O)CN3CCCC3)cc3ccc(=O)oc23)O1 (stereo not given)
Emax at 30 µM (Rattus norvegicus [1]): < 50%

EC50 (Rattus norvegicus [2]; read-out: EC50): 1.9 µM
EC50 (Rattus norvegicus [2]; read-out: pEC50 (converted)): 2.04 µM
EC50 (Rattus norvegicus [11]): 0.339 µM
EC50 (Rattus norvegicus [14]): 2.04 µM
Structure (SMILES): CCCOc1cc2ccc(=O)oc2c2c1OC(C)(C)C=C2
Emax at 30 µM (Rattus norvegicus [1]): 80.6%
Activity (Rattus norvegicus [10]): Dose-Dependent Effect
Emax (Rattus norvegicus [12]): 85%
Emax (Rattus norvegicus [13]): 80.6%
Activity (Rattus norvegicus [15]): Active
Activity (BV-2 [3]): Active
Activity (BV-2 [4]): Active
viability at 12 h, 1 µM [5]: 107%
viability at 12 h, 10 µM [6]: 105%

Structure (SMILES): CCN(CC)CC(O)COc1cc2ccc(=O)oc2c2c1OC(C)(C)C=C2 (stereo not given)
Emax at 30 µM (Rattus norvegicus [1]): < 50%

Structure (SMILES): CC(C)Oc1cc2ccc(=O)oc2c2c1OC(C)(C)C=C2
Emax at 30 µM (Rattus norvegicus [1]): < 50%

Structure (SMILES): CC1(C)C=Cc2c(c(OCC3CO3)cc3ccc(=O)oc23)O1 (stereo not given)
Emax at 30 µM (Rattus norvegicus [1]): < 50%

EC50 (Rattus norvegicus [2]; read-out: pEC50 (converted)): 0.2 µM
EC50 (Rattus norvegicus [11]): 0.195 µM
EC50 (Rattus norvegicus [14]): 0.2 µM
Structure (SMILES): CCOc1cc2ccc(=O)oc2c2c1OC(C)(C)C=C2
Emax at 30 µM (Rattus norvegicus [1]): 96.6%
Activity (Rattus norvegicus [10]): Dose-Dependent Effect
Emax (Rattus norvegicus [12]): 91.4%
Emax (Rattus norvegicus [13]): 96.6%
Activity (Rattus norvegicus [15]): Active
Activity (BV-2 [3]): Active
Activity (BV-2 [4]): Active
viability at 12 h, 1 µM [5]: 114%
viability at 12 h, 10 µM [6]: 105%

EC50 (Rattus norvegicus [2]; read-out: EC50): 1.58 µM
EC50 (Rattus norvegicus [2]; read-out: pEC50 (converted)): 1.58 µM
Structure (SMILES): COc1cc2ccc(=O)oc2c2c1OC(C)(C)C=C2
Activity (BV-2 [3]): Active
Activity (BV-2 [4]): Active
viability at 12 h, 1 µM [5]: 101%
viability at 12 h, 10 µM [6]: 95.2%
